Experiments:
Assay type in all cases: cell-based
human TLR8 = biological target: T1, human TLR8 (Homo sapiens, UniProt Q9NR97); experiment: TLR8 inhibition reporter assay (HEK-Blue SEAP reporter, R848 stimulation); settings: HEK-Blue cells overexpressing human TLR8, SEAP reporter, R848 15.9 μM, 22 hour incubation
T1 construct: host or cells: HEK-Blue cells
T1 sequence (Q9NR97 27-1041): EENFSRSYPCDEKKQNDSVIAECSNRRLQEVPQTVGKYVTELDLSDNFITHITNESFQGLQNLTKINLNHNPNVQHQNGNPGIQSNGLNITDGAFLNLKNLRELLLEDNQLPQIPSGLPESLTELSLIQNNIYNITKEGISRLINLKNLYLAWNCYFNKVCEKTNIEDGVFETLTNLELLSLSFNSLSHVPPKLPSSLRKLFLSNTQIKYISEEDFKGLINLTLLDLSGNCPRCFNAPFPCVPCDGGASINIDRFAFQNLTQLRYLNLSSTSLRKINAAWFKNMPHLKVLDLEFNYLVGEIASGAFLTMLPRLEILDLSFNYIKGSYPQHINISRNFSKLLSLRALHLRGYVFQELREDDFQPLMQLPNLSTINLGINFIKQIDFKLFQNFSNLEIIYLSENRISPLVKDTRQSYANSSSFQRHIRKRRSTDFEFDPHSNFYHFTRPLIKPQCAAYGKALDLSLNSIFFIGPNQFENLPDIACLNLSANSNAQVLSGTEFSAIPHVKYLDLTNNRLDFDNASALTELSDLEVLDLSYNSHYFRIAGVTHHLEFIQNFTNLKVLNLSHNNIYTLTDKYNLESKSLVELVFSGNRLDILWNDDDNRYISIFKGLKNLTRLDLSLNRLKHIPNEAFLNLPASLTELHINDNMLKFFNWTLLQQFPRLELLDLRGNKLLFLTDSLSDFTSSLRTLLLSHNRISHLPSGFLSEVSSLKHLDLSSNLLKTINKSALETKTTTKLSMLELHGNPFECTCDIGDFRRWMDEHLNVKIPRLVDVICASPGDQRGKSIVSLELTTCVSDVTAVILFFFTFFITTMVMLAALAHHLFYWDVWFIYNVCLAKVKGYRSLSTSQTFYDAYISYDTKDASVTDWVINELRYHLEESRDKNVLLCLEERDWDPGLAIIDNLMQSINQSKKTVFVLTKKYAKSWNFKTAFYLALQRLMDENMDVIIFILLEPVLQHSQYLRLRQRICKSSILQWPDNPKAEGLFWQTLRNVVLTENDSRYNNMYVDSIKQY
Summary of the method: (§1)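 Human TLR7/8/9 HEK-Blue reporter lines; dose range 0.05 nM–50 μM; 30 min RT preincubation; stimulus gardiquimod 7.5 μM / R848 15.9 μM / ODN2006 5 nM respectively; 22 h, 37 °C; SEAP detected colorimetrically.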

human TLR7 = biological target: T2, human TLR7 (Homo sapiens, UniProt Q9NYK1); experiment: TLR7 inhibition reporter assay (HEK-Blue SEAP reporter, gardiquimod stimulation); settings: HEK-Blue cells overexpressing human TLR7, SEAP reporter, gardiquimod 7.5 μM, 22 hour incubation
T2 construct: host or cells: HEK-Blue cells
T2 sequence (Q9NYK1 27-1049): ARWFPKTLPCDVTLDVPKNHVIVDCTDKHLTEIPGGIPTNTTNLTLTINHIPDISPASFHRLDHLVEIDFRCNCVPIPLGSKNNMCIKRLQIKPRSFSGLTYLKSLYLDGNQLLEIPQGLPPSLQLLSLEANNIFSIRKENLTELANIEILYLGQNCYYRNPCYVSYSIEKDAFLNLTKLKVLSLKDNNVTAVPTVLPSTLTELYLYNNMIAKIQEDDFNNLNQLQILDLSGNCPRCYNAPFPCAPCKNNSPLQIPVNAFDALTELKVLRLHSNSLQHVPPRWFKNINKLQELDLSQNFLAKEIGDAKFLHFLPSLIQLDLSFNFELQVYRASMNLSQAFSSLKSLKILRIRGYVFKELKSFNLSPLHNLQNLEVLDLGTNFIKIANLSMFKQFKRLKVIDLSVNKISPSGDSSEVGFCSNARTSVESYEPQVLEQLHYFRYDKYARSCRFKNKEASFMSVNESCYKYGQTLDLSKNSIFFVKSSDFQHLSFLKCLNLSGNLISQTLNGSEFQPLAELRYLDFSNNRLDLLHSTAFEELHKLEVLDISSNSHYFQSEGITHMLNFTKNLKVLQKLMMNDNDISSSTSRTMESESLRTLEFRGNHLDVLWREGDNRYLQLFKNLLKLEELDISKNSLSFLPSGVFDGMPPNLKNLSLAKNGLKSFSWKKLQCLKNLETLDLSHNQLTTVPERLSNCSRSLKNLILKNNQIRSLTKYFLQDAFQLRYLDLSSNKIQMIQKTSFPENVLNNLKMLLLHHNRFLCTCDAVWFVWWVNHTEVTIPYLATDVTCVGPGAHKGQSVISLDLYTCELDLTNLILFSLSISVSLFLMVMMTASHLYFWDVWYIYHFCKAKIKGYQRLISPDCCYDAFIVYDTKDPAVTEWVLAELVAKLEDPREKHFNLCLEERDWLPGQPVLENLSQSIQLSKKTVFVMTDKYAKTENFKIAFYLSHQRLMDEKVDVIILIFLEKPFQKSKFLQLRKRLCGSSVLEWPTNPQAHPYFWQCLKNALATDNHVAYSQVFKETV
Summary of the method: as §1

human TLR9 = biological target: T3, human TLR9 (Homo sapiens, UniProt Q9NR96); experiment: TLR9 inhibition reporter assay (HEK-Blue SEAP reporter, ODN2006 stimulation); settings: HEK-Blue cells overexpressing human TLR9, SEAP reporter, ODN2006 5 nM, 22 hour incubation
T3 construct: host or cells: HEK-Blue cells
T3 sequence (Q9NR96 26-1032): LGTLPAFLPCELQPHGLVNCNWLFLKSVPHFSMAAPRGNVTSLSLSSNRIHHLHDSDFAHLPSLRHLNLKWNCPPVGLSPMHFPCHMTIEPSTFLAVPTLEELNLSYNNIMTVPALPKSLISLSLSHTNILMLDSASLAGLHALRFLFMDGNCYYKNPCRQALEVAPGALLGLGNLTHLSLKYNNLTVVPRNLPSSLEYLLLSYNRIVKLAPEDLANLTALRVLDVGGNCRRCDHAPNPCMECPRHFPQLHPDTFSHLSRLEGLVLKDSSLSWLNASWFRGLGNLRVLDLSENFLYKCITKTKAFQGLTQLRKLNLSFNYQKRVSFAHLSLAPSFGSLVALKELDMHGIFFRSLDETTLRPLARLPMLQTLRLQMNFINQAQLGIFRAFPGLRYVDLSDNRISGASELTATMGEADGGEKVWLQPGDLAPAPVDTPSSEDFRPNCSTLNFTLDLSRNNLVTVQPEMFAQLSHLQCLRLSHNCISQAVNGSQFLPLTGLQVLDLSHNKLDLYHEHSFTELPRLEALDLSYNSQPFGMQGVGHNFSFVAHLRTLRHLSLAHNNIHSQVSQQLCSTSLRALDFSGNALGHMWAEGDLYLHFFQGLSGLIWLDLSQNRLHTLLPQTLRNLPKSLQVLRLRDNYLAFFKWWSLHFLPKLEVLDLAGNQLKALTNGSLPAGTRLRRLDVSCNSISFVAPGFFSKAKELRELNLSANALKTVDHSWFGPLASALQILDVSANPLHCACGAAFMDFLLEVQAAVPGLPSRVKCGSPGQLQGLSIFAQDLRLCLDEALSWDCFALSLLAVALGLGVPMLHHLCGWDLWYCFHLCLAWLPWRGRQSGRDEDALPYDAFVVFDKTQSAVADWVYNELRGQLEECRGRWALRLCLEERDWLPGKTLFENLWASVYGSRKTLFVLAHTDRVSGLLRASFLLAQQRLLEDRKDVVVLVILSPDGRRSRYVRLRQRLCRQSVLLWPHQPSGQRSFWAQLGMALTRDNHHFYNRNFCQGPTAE
Summary of the method: as §1

SMILES | IC50 (human TLR8) | IC50 (human TLR7) | IC50 (human TLR9)
CC(=O)NC1CCC(N2CCC(c3ccc4[nH]c(-c5cc(C)c(=O)n(C)c5)c(C(C)C)c4c3)CC2)CC1 (stereo not drawn) [Example 229, N-(4-(4-(2-(1,5-dimethyl-6-oxo-1,6-dihydropyridin-3-yl)-3-isopropyl-1H-indol-5-yl)piperidin-1-yl)cyclohexyl)acetamide] | 4.2 nM | 5.7 nM | ≥ 50000 nM
Cc1cc(-c2[nH]c3ccc(C4CCN(C5CCC(C(F)(F)F)CC5)CC4)cc3c2C(C)C)cn(C)c1=O (stereo not drawn) [Example 230, 5-(3-isopropyl-5-(1-(4-(trifluoromethyl)cyclohexyl)piperidin-4-yl)-1H-indol-2-yl)-1,3-dimethylpyridin-2(1H)-one] | 23.1 nM | 11.2 nM | 5510 nM
Cc1cc(-c2[nH]c3ccc(C4CCN(C5CCC(C(F)(F)F)CC5)CC4)cc3c2C(C)C)cn(C)c1=O (stereo not drawn) [Example 231, 5-(3-isopropyl-5-(1-(4-(trifluoromethyl)cyclohexyl)piperidin-4-yl)-1H-indol-2-yl)-1,3-dimethylpyridin-2(1H)-one] | 22.3 nM | 7 nM | 3230 nM
Cc1nn(C)cc1CN1CCC(c2ccc3[nH]c(-c4cc(C)c(=O)n(C)c4)c(C(C)C)c3c2)CC1 [Example 232, 5-(5-(1-((1,3-dimethyl-1H-pyrazol-4-yl)methyl)piperidin-4-yl)-3-isopropyl-1H-indol-2-yl)-1,3-dimethylpyridin-2(1H)-one] | 1.1 nM | 2.9 nM | 6010 nM
CC(C)c1c(-c2cc(-c3cccnc3)c(=O)n(C)c2)[nH]c2ccc(C3CCN(C(C)C)CC3)cc12 [Example 235, 5-(3-isopropyl-5-(1-isopropylpiperidin-4-yl)-1H-indol-2-yl)-1-methyl-[3,3′-bipyridin]-2(1H)-one] | 5.2 nM | 11 nM | 1770 nM
CC(C)c1c(-c2cc(-c3cccnc3)c(=O)n(C)c2)[nH]c2ccc(C3CCN(CCO)CC3)cc12 [Example 236, 5-(5-(1-(2-hydroxyethyl)piperidin-4-yl)-3-isopropyl-1H-indol-2-yl)-1-methyl-[3,3′-bipyridin]-2(1H)-one] | 9.8 nM | 4.6 nM | 980 nM
Cc1c(-c2[nH]c3ccc(C4CCN(C(C)C)CC4)cc3c2C(C)C)cn(C)c(=O)c1-c1cccnc1 [Example 237, 5-(3-isopropyl-5-(1-isopropylpiperidin-4-yl)-1H-indol-2-yl)-1,4-dimethyl-[3,3′-bipyridin]-2(1H)-one] | 19.8 nM | 181 nM | 2100 nM
Cc1c(-c2[nH]c3ccc(C4CCN(C(C)C)CC4)cc3c2C(C)C)cn(C)c(=O)c1Cl [Example 238, 3-chloro-5-(3-isopropyl-5-(1-isopropylpiperidin-4-yl)-1H-indol-2-yl)-1,4-dimethylpyridin-2(1H)-one] | 11.8 nM | 7.2 nM | 8330 nM
Cc1c(-c2[nH]c3ccc(C4CCN(C5CCOCC5)CC4)cc3c2C(C)C)cn(C)c(=O)c1Cl [Example 239, 3-chloro-5-(3-isopropyl-5-(1-(tetrahydro-2H-pyran-4-yl)piperidin-4-yl)-1H-indol-2-yl)-1,4-dimethylpyridin-2(1H)-one] | 5.3 nM | 5.4 nM | 5810 nM

Results, then the molecule that gave them:

IC50 (human TLR8) | IC50 (human TLR7) | IC50 (human TLR9) | SMILES
3.7 nM | 1 nM | 2590 nM | Cc1c(-c2[nH]c3ccc(C4CCN(C)CC4)cc3c2C(C)C)cn(C)c(=O)c1Cl [Example 240, 3-chloro-5-(3-isopropyl-5-(1-methylpiperidin-4-yl)-1H-indol-2-yl)-1,4-dimethylpyridin-2(1H)-one]
4.8 nM | 8.3 nM | 4870 nM | CC(=O)N1CCC(c2ccc3[nH]c(-c4cn(C)c(=O)c(Cl)c4C)c(C(C)C)c3c2)CC1 [Example 241, 5-(5-(1-acetylpiperidin-4-yl)-3-isopropyl-1H-indol-2-yl)-3-chloro-1,4-dimethylpyridin-2(1H)-one]
5.1 nM | 3.2 nM | 2680 nM | CCCN1CCC(c2ccc3[nH]c(-c4cn(C)c(=O)c(Cl)c4C)c(C(C)C)c3c2)CC1 [Example 242, 3-chloro-5-(3-isopropyl-5-(1-propylpiperidin-4-yl)-1H-indol-2-yl)-1,4-dimethylpyridin-2(1H)-one]
9.1 nM | 1.4 nM | 1770 nM | Cc1c(-c2[nH]c3ccc(C4CCN(C(CCO)CCO)CC4)cc3c2C(C)C)cn(C)c(=O)c1Cl [Example 243, 3-chloro-5-(5-(1-(1,5-dihydroxypentan-3-yl)piperidin-4-yl)-3-isopropyl-1H-indol-2-yl)-1,4-dimethylpyridin-2(1H)-one]
1.8 nM | 6 nM | 954 nM | CC(C)c1c(-c2cc(-c3cncnc3)c(=O)n(C)c2)[nH]c2ccc(C3CCN(C(C)C)CC3)cc12 [Example 244, 5-(3-isopropyl-5-(1-isopropylpiperidin-4-yl)-1H-indol-2-yl)-1-methyl-3-(pyrimidin-5-yl)pyridin-2(1H)-one]

— patent US11447466B2, “Substituted indole compounds useful as inhibitors of TLR7/8/9” (BRISTOL-MYERS SQUIBB COMPANY, priority 2017, dated 2022)
